Patent publication US9193731B2, “Antimicrobial compounds and methods of making and using the same” (Melinta Therapeutics, Inc., priority 2009, dated 2015)

System: Escherichia coli strain ATCC25922
Assay: standard microdilution assay to determine minimum inhibitory concentrations (MICs)
Assay type: cell-based
Conditions: Escherichia coli strain ATCC25922, microdilution
Method in brief: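 E. coli strain ATCC25922 tested per CLSI microdilution methodology (about 100 microliters per well) to find minimum inhibitory concentrations. Activity scored categorically at a 16 micrograms/ml threshold.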

| SMILES | E. coli ATCC25922 MIC |
| --- | --- |
| N=C(N)NCCCNCc1ccc(-n2cc3cc(CCS(=O)(=O)N(CCCc4ccccc4)C4CCNCC4)[nH]c3nc2=O)cc1 [Compound 990] | + (a “+” indicates that the compound has an MIC value of 16 micrograms/ml or less) |
| N=C(N)NCCCNCc1ccc(-n2cc3cc(-c4cc(C(=O)NCC(F)(F)F)cc(N5CCNCC5)c4)[nH]c3nc2=O)cc1 [Compound 971] | + (a “+” indicates that the compound has an MIC value of 16 micrograms/ml or less) |
| NC(N)=NCCC(=O)NCc1ccc(-n2cc3cc(-c4ccc(S(=O)(=O)N(CCCc5cccnc5)C5CCNCC5)cc4)[nH]c3nc2=O)cc1 [Compound 1190] | − (a “−” indicates that the compound has an MIC value greater than 16 micrograms/ml) |
| N=C(N)NCCCNCc1ccc(-n2cc3cc(-c4cccc(S(=O)(=O)N(CCN5CCCCC5)C5CCNCC5)c4)[nH]c3nc2=O)cc1 [Compound 1077] | + (a “+” indicates that the compound has an MIC value of 16 micrograms/ml or less) |
| NCCCCOc1ccc(-c2cn3cc(-c4ccc(C(=O)N5CCNCC5)cc4)[nH]c3nc2=O)cc1 [Compound 847] | − (a “−” indicates that the compound has an MIC value greater than 16 micrograms/ml) |
| N=C(N)NCCCNCc1ccc(-n2cc3cc(-c4cc(CO)cc(OCC(F)CN)c4)[nH]c3nc2=O)cc1 (centres unmarked) [Compound 2050a] | + (a “+” indicates that the compound has an MIC value of 16 micrograms/ml or less) |
| COc1ccc(NCCCS(=O)(=O)c2ccc(-c3cc4cn(-c5ccc(C(=O)NCCCNC(=N)N)cc5)c(=O)nc4[nH]3)cc2)cc1 [Compound 1260] | − (a “−” indicates that the compound has an MIC value greater than 16 micrograms/ml) |
| N=C(N)NCCCNCc1ccc(-n2cc3cc(-c4ccc(S(=O)(=O)N(CCCc5ccncc5)C5CCNCC5)cc4)[nH]c3nc2=O)cc1 [Compound 838] | + (a “+” indicates that the compound has an MIC value of 16 micrograms/ml or less) |
| N=C(N)NCCCNCc1ccc(-n2cc3cc(C4CCCN(CCOCCO)C4)[nH]c3nc2=O)cc1 (centres unmarked) [Compound 2043a] | + (a “+” indicates that the compound has an MIC value of 16 micrograms/ml or less) |
| N=C(N)NCCCNCc1ccc(-n2cc3cc(-c4ccc(S(=O)(=O)N(CC5CCOCC5)C5CCNCC5)cc4)[nH]c3nc2=O)cc1 [Compound 758] | + (a “+” indicates that the compound has an MIC value of 16 micrograms/ml or less) |
| N=C(N)NCCCNCc1ccc(-n2cc3cc(-c4cc(CN)cc(CCCCN)c4)[nH]c3nc2=O)cc1 [Compound 2064a] | + (a “+” indicates that the compound has an MIC value of 16 micrograms/ml or less) |

Same assay, conditions: Escherichia coli, ATCC25922, Escherichia coli strain ATCC25922, microdilution; read-out: E. coli ATCC25922 MIC

| MIC | SMILES |
| --- | --- |
| < 16 µg/mL | N=C(N)NCCCNCc1ccc(-c2cn3cc(-c4ccc(C(=O)N5CCNCC5)cc4)[nH]c3nc2=O)cc1 [Compound 683] |
| > 16 µg/mL | NCCCNCc1ccc(-n2cc3cc(C4=CCCCC4)[nH]c3nc2=O)cc1 [Compound 623] |
| > 16 µg/mL | NCCCN(CCCN)Cc1ccc(-n2cc3cc(-c4ccc(C(=O)N[C@H]5CC[C@H](O)CC5)cc4)[nH]c3nc2=O)cc1 [Compound 192] |
| > 16 µg/mL | CCOCCn1cc(CCNO)c2ccc(-n3cc4cc(CCS(=O)(=O)NC5CCNCC5)[nH]c4nc3=O)cc21 [Compound 1209] |
| < 16 µg/mL | NCCCN(CCCN)Cc1ccc(-n2cc3cc(-c4ccc(C(=O)N(Cc5cc(F)cc(F)c5)C5CCNCC5)cc4)[nH]c3nc2=O)cc1 [Compound 225] |
| < 16 µg/mL | N=C(N)NCCCNCc1ccc(-c2cn3cc[nH]c3nc2=O)cc1 [Compound 564, N-{3-[4-(7-Oxo-1,7-dihydro-imidazo[1,2-a]pyrimidin-6-yl)-benzylamino]-propyl}-guanidine] |
| > 16 µg/mL | NCc1ccc(-n2cc3cc(-c4cccc(CCN5CCNCC5)c4)[nH]c3nc2=O)cc1 [Compound 1200] |
| > 16 µg/mL | NCc1ccc(-n2cc3cc(-c4cccc(OCCF)c4)[nH]c3nc2=O)cc1 [Compound 1168] |
| > 16 µg/mL | CN1CCN(C(=O)c2ccc(-c3cn4cc(-c5ccc(CNCCCN)cc5)c(=O)nc4[nH]3)cc2)CC1 [Compound 699] |
